Source: article PMC9401487 (Clinical Cancer Research, 2021)
“Also recorded” adds a separate entry of the source.

System: patients with advanced solid tumors
Experiment: Phase I safety and tolerability
Assay type: in vivo, human
[1] = Cohort 1 (N=2), 20 mg BID 17 days + carboplatin
[2] = Cohort 2 (N=7), 20 mg BID 10 days + carboplatin
[3] = Cohort 3 (N=3), 40 mg BID 10 days + carboplatin

C[C@@H]1COCCN1c1cc(C2([S@](C)(=N)=O)CC2)nc(-c2cc[nH]c3nccc2-3)n1 [ceralasertib]
TEAE Abdominal pain, Grade 1–2 [1]: 0 patients, n (%)
TEAE Abdominal pain, Grade ≥3 [1]: 1 (50) patients, n (%)
TEAE Alanine aminotransferase increased, Grade 1–2 [1]: 0 patients, n (%)
TEAE Alanine aminotransferase increased, Grade ≥3 [1]: 0 patients, n (%)
TEAE Anemia, Grade 1–2 [1]: 1 (50) patients, n (%)
TEAE Anemia, Grade ≥3 [1]: 0 patients, n (%)
TEAE Any AE, Grade 1–2 [1]: 1 (50) patients, n (%)
TEAE Any AE, Grade ≥3 [1]: 1 (50) patients, n (%)
TEAE Arthralgia, Grade 1–2 [1]: 0 patients, n (%)
TEAE Arthralgia, Grade ≥3 [1]: 0 patients, n (%)
TEAE Aspartate aminotransferase increased, Grade 1–2 [1]: 0 patients, n (%)
TEAE Aspartate aminotransferase increased, Grade ≥3 [1]: 0 patients, n (%)
TEAE Constipation, Grade 1–2 [1]: 1 (50) patients, n (%)
TEAE Constipation, Grade ≥3 [1]: 0 patients, n (%)
TEAE Contusion, Grade 1–2 [1]: 0 patients, n (%)
TEAE Contusion, Grade ≥3 [1]: 0 patients, n (%)
TEAE Cough, Grade 1–2 [1]: 0 patients, n (%)
TEAE Cough, Grade ≥3 [1]: 0 patients, n (%)
TEAE Decreased appetite, Grade 1–2 [1]: 0 patients, n (%)
TEAE Decreased appetite, Grade ≥3 [1]: 0 patients, n (%)
TEAE Diarrhea, Grade 1–2 [1]: 1 (50) patients, n (%)
TEAE Diarrhea, Grade ≥3 [1]: 0 patients, n (%)
TEAE Dizziness, Grade 1–2 [1]: 0 patients, n (%)
TEAE Dizziness, Grade ≥3 [1]: 0 patients, n (%)
TEAE Dyspnea, Grade 1–2 [1]: 1 (50) patients, n (%)
TEAE Dyspnea, Grade ≥3 [1]: 0 patients, n (%)
TEAE Fatigue, Grade 1–2 [1]: 2 (100) patients, n (%)
TEAE Fatigue, Grade ≥3 [1]: 0 patients, n (%)
TEAE Hypocalcemia, Grade 1–2 [1]: 0 patients, n (%)
TEAE Hypocalcemia, Grade ≥3 [1]: 0 patients, n (%)
TEAE Insomnia, Grade 1–2 [1]: 0 patients, n (%)
TEAE Insomnia, Grade ≥3 [1]: 0 patients, n (%)
TEAE Lower respiratory tract infection, Grade 1–2 [1]: 0 patients, n (%)
TEAE Lower respiratory tract infection, Grade ≥3 [1]: 0 patients, n (%)
TEAE Nausea, Grade 1–2 [1]: 1 (50) patients, n (%)
TEAE Nausea, Grade ≥3 [1]: 0 patients, n (%)
TEAE Neutropenia, Grade 1–2 [1]: 0 patients, n (%)
TEAE Neutropenia, Grade ≥3 [1]: 1 (50) patients, n (%)
TEAE Neutrophil count decreased, Grade 1–2 [1]: 0 patients, n (%)
TEAE Neutrophil count decreased, Grade ≥3 [1]: 0 patients, n (%)
TEAE Platelet count decreased, Grade 1–2 [1]: 0 patients, n (%)
TEAE Platelet count decreased, Grade ≥3 [1]: 0 patients, n (%)
TEAE Pyrexia, Grade 1–2 [1]: 1 (50) patients, n (%)
TEAE Pyrexia, Grade ≥3 [1]: 0 patients, n (%)
TEAE Thrombocytopenia, Grade 1–2 [1]: 1 (50) patients, n (%)
TEAE Thrombocytopenia, Grade ≥3 [1]: 1 (50) patients, n (%)
TEAE Upper respiratory tract infection, Grade 1–2 [1]: 0 patients, n (%)
TEAE Upper respiratory tract infection, Grade ≥3 [1]: 0 patients, n (%)
TEAE Vomiting, Grade 1–2 [1]: 1 (50) patients, n (%)
TEAE Vomiting, Grade ≥3 [1]: 0 patients, n (%)
TEAE White blood cell count decreased, Grade 1–2 [1]: 0 patients, n (%)
TEAE White blood cell count decreased, Grade ≥3 [1]: 1 (50) patients, n (%)
SRC decision (tolerability) (Cohort 1: 20 mg BID days 4–20 (17 days) + carboplatin AUC5, 2 patients): declared intolerable; also recorded: Not tolerated
TEAE Abdominal pain, Grade 1–2 [2]: 0 patients, n (%)
TEAE Abdominal pain, Grade ≥3 [2]: 0 patients, n (%)
TEAE Alanine aminotransferase increased, Grade 1–2 [2]: 1 (14) patients, n (%)
TEAE Alanine aminotransferase increased, Grade ≥3 [2]: 0 patients, n (%)
TEAE Anemia, Grade 1–2 [2]: 2 (29) patients, n (%)
TEAE Anemia, Grade ≥3 [2]: 2 (29) patients, n (%)
TEAE Any AE, Grade 1–2 [2]: 2 (29) patients, n (%)
TEAE Any AE, Grade ≥3 [2]: 5 (71) patients, n (%)
TEAE Arthralgia, Grade 1–2 [2]: 1 (14) patients, n (%)
TEAE Arthralgia, Grade ≥3 [2]: 0 patients, n (%)
TEAE Aspartate aminotransferase increased, Grade 1–2 [2]: 1 (14) patients, n (%)
TEAE Aspartate aminotransferase increased, Grade ≥3 [2]: 0 patients, n (%)
TEAE Constipation, Grade 1–2 [2]: 2 (29) patients, n (%)
TEAE Constipation, Grade ≥3 [2]: 0 patients, n (%)
TEAE Contusion, Grade 1–2 [2]: 1 (14) patients, n (%)
TEAE Contusion, Grade ≥3 [2]: 0 patients, n (%)
TEAE Cough, Grade 1–2 [2]: 5 (71) patients, n (%)
TEAE Cough, Grade ≥3 [2]: 0 patients, n (%)
TEAE Decreased appetite, Grade 1–2 [2]: 1 (14) patients, n (%)
TEAE Decreased appetite, Grade ≥3 [2]: 0 patients, n (%)
TEAE Diarrhea, Grade 1–2 [2]: 2 (29) patients, n (%)
TEAE Diarrhea, Grade ≥3 [2]: 0 patients, n (%)
TEAE Dizziness, Grade 1–2 [2]: 0 patients, n (%)
TEAE Dizziness, Grade ≥3 [2]: 0 patients, n (%)
TEAE Dyspnea, Grade 1–2 [2]: 3 (43) patients, n (%)
TEAE Dyspnea, Grade ≥3 [2]: 0 patients, n (%)
TEAE Fatigue, Grade 1–2 [2]: 4 (58) patients, n (%)
TEAE Fatigue, Grade ≥3 [2]: 1 (14) patients, n (%)
TEAE Hypocalcemia, Grade 1–2 [2]: 0 patients, n (%)
TEAE Hypocalcemia, Grade ≥3 [2]: 0 patients, n (%)
TEAE Insomnia, Grade 1–2 [2]: 2 (29) patients, n (%)
TEAE Insomnia, Grade ≥3 [2]: 0 patients, n (%)
TEAE Lower respiratory tract infection, Grade 1–2 [2]: 2 (29) patients, n (%)
TEAE Lower respiratory tract infection, Grade ≥3 [2]: 0 patients, n (%)
TEAE Nausea, Grade 1–2 [2]: 2 (29) patients, n (%)
TEAE Nausea, Grade ≥3 [2]: 0 patients, n (%)
TEAE Neutropenia, Grade 1–2 [2]: 1 (14) patients, n (%)
TEAE Neutropenia, Grade ≥3 [2]: 0 patients, n (%)
TEAE Neutrophil count decreased, Grade 1–2 [2]: 0 patients, n (%)
TEAE Neutrophil count decreased, Grade ≥3 [2]: 0 patients, n (%)
TEAE Platelet count decreased, Grade 1–2 [2]: 0 patients, n (%)
TEAE Platelet count decreased, Grade ≥3 [2]: 1 (14) patients, n (%)
TEAE Pyrexia, Grade 1–2 [2]: 3 (43) patients, n (%)
TEAE Pyrexia, Grade ≥3 [2]: 0 patients, n (%)
TEAE Thrombocytopenia, Grade 1–2 [2]: 4 (58) patients, n (%)
TEAE Thrombocytopenia, Grade ≥3 [2]: 1 (14) patients, n (%)
TEAE Upper respiratory tract infection, Grade 1–2 [2]: 3 (43) patients, n (%)
TEAE Upper respiratory tract infection, Grade ≥3 [2]: 0 patients, n (%)
TEAE Vomiting, Grade 1–2 [2]: 2 (29) patients, n (%)
TEAE Vomiting, Grade ≥3 [2]: 0 patients, n (%)
TEAE White blood cell count decreased, Grade 1–2 [2]: 0 patients, n (%)
TEAE White blood cell count decreased, Grade ≥3 [2]: 0 patients, n (%)
TEAE Abdominal pain, Grade 1–2 [3]: 0 patients, n (%)
TEAE Abdominal pain, Grade ≥3 [3]: 0 patients, n (%)
TEAE Alanine aminotransferase increased, Grade 1–2 [3]: 0 patients, n (%)
TEAE Alanine aminotransferase increased, Grade ≥3 [3]: 0 patients, n (%)
TEAE Anemia, Grade 1–2 [3]: 1 (33) patients, n (%)
